Where “and” joins values, the source holds several entries; their conditions need not be identical. Identical values can stand only once. No end group written: not given here. *: point of attachment. sulfo = O=S(=O)(O)*
Experiments:
[1] = system: corn; assay: Foliar Flg22 and retro inverso Flg22 on corn, plant height (Example 7); assay type: in vivo; conditions: 1 μM
Procedure: Control plants were treated with water alone.

[2] = system: reactive oxygen species (ROS) production in corn tissue; assay: ROS activity assay, corn tissue (Examples 15-18); assay type: cell-based
[3] = system: reactive oxygen species (ROS) production in soybean leaf tissue; assay: ROS activity assay, soybean leaf discs (Examples 15-18); assay type: cell-based
[4] = system: corn; assay: Corn seed treatment with Bt.4Q7Flg22 and Pa.Flg22, yield (Example 36); assay type: in vivo; conditions: 1 uM in slurry, 3 hybrids, 8 locations
Procedure: Seed treatment compositions of the Flg22 polypeptides were applied as described in Table 53 as Fl. oz per unit of corn or soy seeds in a total slurry volume containing the base seed treatment Bt.4Q7Flg22 from Bacillus thuringinesis (Composition 10) and Pa. Flg22 from Paenibacillus alvei (Composition 11). Final concentration of polypeptide in the slurry for Compositions 10 and 11 was 1 uM.
The average change in Bu/Ac was as compared to the corn plants grown from seed that received the only the base seed treatment (ST) and is reported in Table 54.

[5] = system: soybean; assay: Soybean seed treatment with Flg22 polypeptides and cellobiose, yield (Example 38); assay type: in vivo; conditions: polypeptide at 1.0 μM (combination 0.33 μM each; cellobiose 1 mM)
Procedure: Seed treatments were applied to 1 soybean hybrid (variety) planted in 1 locations in the US Midwest (Columbia, MO). […] The application use rates per each seed treatment were held constant at 0.14 Fl. oz/Ac or 4.14 mL/unit. Final concentration of the Flg22 polypeptides in the slurry for were standardized to 1 uM per seed. The same final concentration of cellobiose that was applied in combination treatments with the Flg22 polypeptides was at 1.0 mM per seed. Four replicate plots per each seed treatment were randomized over the location. The average yield in Bu/Ac and the average change in Bu/Ac as compared to the control plants that received only the base seed treatment are reported in Table 58.

[6] = system: corn; assay: Foliar At.PSKα on corn, field yield (Example 20); assay type: in vivo
Procedure: (§1) The effect of Phytosulfokine alpha (PSKα), a sulfonated bioactive priming polypeptide derived from Arabidopsis thaliana, on corn and soybean yield was tested. Corn and soybeans were cultivated in the field as described in Example 1 and 3. Arabidopsis thaliana PSKα (SEQ ID NO: 598) was applied at a final concentration of 1 μM in foliar spray with a surfactant and provided using a uniform application to the above ground plant parts of corn (hybrid 5140RR) and soybean (hybrid 375 NR). At.PSKα formulations were applied at the V5-V8 stage of development in corn and the V1-V4 stage of development in soybean. Corn and soybean plants treated with At.PSKα were compared to non-treated control plants (water). Treated plants were randomized at one location in four replicate blocks for comparisons to the controls. Yield was reported in Bushels per acre (Bu/Ac).

[7] = system: soybean; assay: Foliar At.PSKα on soybean, field yield (Example 20); assay type: in vivo
Procedure: as §1

[8] = system: soybean; assay: Foliar At.PSKα on soybean in non-stress and stress environments (Example 21); assay type: in vivo; conditions: V1-V4 foliar
Procedure: Soybean plants were grown as described in Example 6. The At.PSKα polypeptide (SEQ ID NO: 598) was applied as a foliar spray to the plants at the V1-V4 stage. Soybean plants treated with foliar applications of At.PSKα and control plants treated with water and surfactant alone were then grown in conditions described in Examples 7-9 that produced a non-stress and stress (heat and water deficit) environments. Table 37 describes the percentage change or increase in height reported for soybean plants treated with At.PSKα as a foliar spray at the V1-V4 growth stage.

[9] = system: corn; assay: Foliar HpaG-like and At.PSKα on corn, plant height in non-stress and stress (Example 27); assay type: in vivo
[10] = system: Candidatus liberibacter asiaticus; conditions: in vivo
[11] = system: reactive oxygen species (ROS) production in Kiwi 'Hayward' leaf petioles; assay: ROS assay, kiwi leaf petioles (Example 54); assay type: cell-based, Actinidiae deliciosa; conditions: 100 nM peptide, 40 minutes time course, SEM in the row below
Procedure: To test the sensitivity of kiwi leaves to 22-amino acid fragments of flagellin, 1 mm slices were cut through Actinidiae deliciosa Kiwi ‘Hayward’ leaf petioles and floated in 150 μL of water in a 96-well plate, with one slice per well. […] In two independent experiments, a total of 6 kiwi leaf petiole samples were treated with each Flg22 polypeptide in Table 94. The average total RLU and standard error of the means (SEM) was calculated for each treatment. A two-tailed T-test was used to determine significance at the 90% confidence level (P<0.1) between treatments. Relative ROS production was determined for each polypeptide in comparison to total RLUs for the 100 nM Bt.4Q7Flg22 control.

[12] = system: Pseudomonas syringae pv. actinidiae (PSA-V); assay: Potted kiwi disease trial, PSA-V leaf spot (Example 54); conditions: 6, 16 and 23 DAI
[13] = system: corn; assay: Foliar Flg22 polypeptides on corn, field yield trials (Example 1); assay type: in vivo; conditions: first year field trials, 10 locations, vs non-treated control
Procedure: Flg22 (SEQ ID NO 526) and Ec.RI Flg22 (SEQ ID 527) bioactive priming polypeptides on corn (BECK'S 5828 YH, 6175YE) yield was determined in 10 separate locations in the US Midwest (FIG. 2 and FIG. 3).
Four-row plots, 17.5 feet (5.3 meters) long were planted at all locations. […] Each hybrid was grown in at least three separate plots (replicates) at each location to account for field variability.
The final concentration in the spray tank was 25 nM after dilution in carrier rate of 10 gallons water/Ac […]. […] Retro-inverso polypeptides were applied during the first year field trials to compare with native Bt.4Q7Flg22. […] Each polypeptide was applied with a non-ionic surfactant at 0.5%. The effect of bioactive priming polypeptides was measured as the absolute changes in yield in bushels per acre (Bu/Ac). Additionally, the win rate was calculated: the percentage of testing locations at which one treatment has a yield advantage over other treatments (in this case, as compared to the non-treated control plants).
Each study was performed at between 10 and 11 sites. The end results of the study at V5-V8 at 0.33 Fl. oz/Ac (24.1 mL/Ha) was 5.75 Bu/Ac or 360.9 kg/Ha advantage, at 4 Fl. oz/Ac a 3.77 bu/Ac or 236.6 kg/Ha advantage, and at 8 Fl. oz/Ac a 5.05 Bu/Ac or 317 kg/Ha.

[14] = system: corn; assay: Foliar E. coli flagellin polypeptides on V5-V8 corn, yield (Example 5); assay type: in vivo; conditions: V5-V8, 0.33 Fl. oz/Ac, 12 locations
Procedure: The effect of flagellin polypeptides derived from Escherichia coli on corn yield was then tested. Corn plants (Beck's 5828 YH) received an initial spray application at the V5-V8 stage of development with formulations containing the Ec.
FIG. 5 depicts yield across these 12 locations, normalized to the non-treated control plants and shown as an increase or a decrease in Bu/Ac compared to the control. […] Therefore, application of foliar sprays containing the Ec.Flg22 (SEQ ID NO: 526) bioactive priming polypeptides provided a beneficial growth response and yield benefit to corn plants when applied at the V5-V8 stage of development.

[15] = system: soybean; assay: Foliar Ec.Flg22 on V2-V3 soybean, plant height in growth room (Example 6); assay type: in vivo; conditions: 0.33 Fl. oz/Ac, 2 weeks after application
[16] = system: corn; assay: Corn plant height in non-stress and heat/water deficit stress environments (Example 8); assay type: in vivo; conditions: foliar 1 μM
Procedure: Control plants were treated only with water.

[17] = system: corn; assay: Corn seed treatment with Flg22 polypeptides, yield (Example 10); assay type: in vivo; conditions: second study, 12 locations
Procedure: The seed applications were provided using a 40 μM polypeptide stock diluted to the appropriate concentration in a slurry containing a fungicide, insecticide, beneficial bacteria, colorant and seed finisher (EverGol Energy (0.031 mg ai/seed), PONCHO/VOTiVO (0.6 mg ai/seed), Peridium 1006 (5 fl oz/cwt or 147.9 mL/cwt) and Pro-Ized Red Colorant (normal) (0.5 fl oz/cwt). Seed treatment was applied using a Wintersteiger HEGE II (Wintersteiger AG, Austria, Germany).
Seed was planted in 12 locations in the U.S. Midwest (IA, IL, IN). Sixteen randomized replicate blocks were harvested per each of the Flg22 polypeptide treatments consisting of Bt.4Q7Flg22 applied at 0.25 μM and 1.0 μM slurry concentration.
Replicated trials with 12 locations were set up as above. […] The Ec. Flg22 polypeptide gave 2.8 Bu/Ac (175.8 kg/Ha) advantage at 70% win rate, and the Ec.RI Flg22 gave no benefit.

[18] = system: soybean; assay: Soybean seed treatment with Flg22 polypeptides and RHPP, yield (Example 10); assay type: in vivo; conditions: 12 locations
From the text: A third study was set up to look at soybean seed treatment benefits of Bt.4Q7 Flg22, RI Bt.4Q7Flg22, Ec.RI Flg22, and RHPP as a seed treatment on soybean.

[19] = system: soybean; assay: Flg22 and RHPP on R2 soybean, field yield (Examples 3-4); conditions: second study, R2 foliar

Substance: Bt4Q7Flg 22 (DRLSSGKRINSASDDAAGLAIA; listed as Bacillus thuringiensis)
- Δ Height (cm) ([1]; 3 to 5 weeks): 5.40 cm
- Δ Height Normalized as a percentage of control height ([1]; vs water-treated control): +3.7%

Substance: GKLSSGLRINGASDDAAGLAIS (listed as Paenibacillus sp.) [Pa.Flg22]
- Avg. Activity (%) Corn (5828 YX) 5 nM polypeptide [2]: 135.3% and 103.61%
- Avg. Activity (%) Soybean (297 R4) 100 nM polypeptide [3]: 112.5% and 132.95%
- yield increase vs base seed treatment [4]: 3.57 Bu/Ac
- Average Change in Bu/Ac compared to Untreated Control [5]: +0.28 Bu/Ac

Substance: At.PSKα: Phytosulfokine alpha, sulfonated polypeptide derived from Arabidopsis thaliana (Y(sulfo)IY(sulfo)TQ; listed as Arabidopsis thaliana)
- yield increases Bu/Ac Foliar Corn ([6]; 1 μM foliar spray with surfactant at V5-V8, vs water control): 3.0 Bu/Ac
- increase in overall yield ([6]; foliar 1 μM, V5-V8 corn): 3 Bu/Ac
- yield increases Bu/Ac Foliar Soybean ([7]; 1 μM foliar spray with surfactant at V1-V4, vs water control): 0.8 Bu/Ac
- yield increase ([7]; foliar 1 μM, V1-V4 soybean): 0.8 Bu/Ac
- increase in height vs non-treated control ([8]; non-stress environment): 3.5%
- increase in height vs non-treated control ([8]; stress (heat and water deficit) environments): 4.3%
- Height (cm) and (STDEV) 3 weeks ([9]; corn, 3 weeks after emergence, measured before the foliar spray (baseline), HpaG-like 1 μM, At.PSKα 100 nM): 49.36 cm
- Plant Height Normalized as a percentage of control height Stress ([9]; corn, 5 weeks, heat and water deficit stress, control surfactant alone): 107.8%
- Plant Height Normalized as a percentage of control height Non-stress ([9]; corn, 5 weeks, control surfactant alone): 98.2%
- Height (cm) after stress 5 weeks ([9]; corn, heat and water deficit stress, HpaG-like 1 μM, At.PSKα 100 nM foliar): 54.88 cm
- Height (cm) after non-stress 5 weeks ([9]; corn, standard growth environment, HpaG-like 1 μM, At.PSKα 100 nM foliar): 58.62 cm
- growth phenotype (plant height) vs control ([9]; heat and water deficit stress, HpaG-like 1 μM, PSKα): improved growth phenotype

Substance: thionin "tagged": thionin polypeptide that comprised a phloem localization sequence (SEQ ID NO: 650) (RTCESQSHRFKGPCSRDSNCATVCLTEGFSGGDCRGFRRRCRCTRPCVFDEK)
- Ct values compared to control trees [10]: higher average Ct values

Substance: TRLSSGLKINSAKDDAAGLQIA (listed as Pseudomonas syringae) [Flg22-PSA]
- Average Total Relative Light Units (RLUs) [11]: 124,550 RLUs
- PSA-V leaf spot symptoms in comparison to untreated control [12]: significantly reduced PSA-V leaf spot symptoms

Substance: AIAQGAADDKASNIRLGSSLRE (not fully specified (some residues); also: retro-inverso D-amino acids, exact chain order not given here; listed as Escherichia coli) [Ec.RI Flg22]
- win rate [13]: 50%
- average yield increase ([13]; foliar spray 0.33 Fl. oz/Ac, V5-V8 corn): 1.9 Bu/Ac
- average yield increase over non-treated plants [14]: 1.9 Bu/Ac
- increase in plant height normalized to control [15]: 16%
- plant height as percentage of control ([16]; heat/water stressed conditions): 103%
- plant height as percentage of control ([16]; non-stressed conditions): 103%
- yield advantage [17]: no benefit
- win rate [18]: 73%
- yield advantage [18]: 1.8 Bu/Ac
- yield increase ([19]; 100 nM in the tank): 0.6 Bu/Ac
- win rate ([19]; 10-11 sites): 80%
